Columns and labels:
[1] = biological target: Calcium-dependent protein kinase 1 (Plasmodium falciparum) (UniProt P62344); details: Compound concentration 1000.0 nM
[2] = biological target: T1, Serine/threonine-protein kinase 17B (Homo sapiens) (UniProt O94768); details: Compound concentration 1000.0 nM
T1 sequence (whole entry): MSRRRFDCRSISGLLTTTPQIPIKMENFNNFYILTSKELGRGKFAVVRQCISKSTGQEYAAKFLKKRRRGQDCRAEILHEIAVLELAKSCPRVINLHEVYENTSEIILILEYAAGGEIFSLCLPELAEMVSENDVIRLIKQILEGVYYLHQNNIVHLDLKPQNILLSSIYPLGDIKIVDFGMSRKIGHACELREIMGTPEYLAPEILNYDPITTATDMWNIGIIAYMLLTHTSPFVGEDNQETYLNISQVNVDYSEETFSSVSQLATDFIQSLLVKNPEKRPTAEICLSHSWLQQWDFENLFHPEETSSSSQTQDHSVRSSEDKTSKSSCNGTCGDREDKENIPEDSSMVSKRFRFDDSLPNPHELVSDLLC

[3] = biological target: Serine/threonine-protein kinase WNK2 (Homo sapiens) (UniProt Q9Y3S1); details: Compound concentration 1000.0 nM
[4] = biological target: D(1B) dopamine receptor (Homo sapiens) (UniProt P21918); details: Compound concentration 10.0 uM
[5] = biological target: Mitogen-activated protein kinase kinase kinase 6 (Homo sapiens) (UniProt O95382); details: Compound concentration 1000.0 nM
[6] = biological target: T2, Serine/threonine-protein kinase Nek2 (Homo sapiens) (UniProt P51955); details: Compound concentration 1000.0 nM
T2 sequence (whole entry): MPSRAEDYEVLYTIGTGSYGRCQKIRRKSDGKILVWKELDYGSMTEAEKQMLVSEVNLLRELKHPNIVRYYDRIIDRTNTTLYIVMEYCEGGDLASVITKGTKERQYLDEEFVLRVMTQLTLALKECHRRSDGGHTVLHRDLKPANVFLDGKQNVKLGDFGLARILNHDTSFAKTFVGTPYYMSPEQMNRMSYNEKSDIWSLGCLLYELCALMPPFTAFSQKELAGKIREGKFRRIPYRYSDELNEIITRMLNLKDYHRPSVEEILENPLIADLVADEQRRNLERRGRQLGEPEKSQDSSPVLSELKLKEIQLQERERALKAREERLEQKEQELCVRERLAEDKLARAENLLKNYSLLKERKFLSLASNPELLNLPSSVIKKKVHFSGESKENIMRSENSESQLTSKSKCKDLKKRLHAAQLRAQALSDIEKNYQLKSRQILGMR

[7] = system: Tyrosine-protein kinase ABL1 (Homo sapiens), P00519 [F317I]; details: Compound concentration 1000.0 nM
[8] = biological target: Microtubule-associated serine/threonine-protein kinase 1 (Homo sapiens) (UniProt Q9Y2H9); details: Compound concentration 1000.0 nM
[9] = biological target: T3, Mitogen-activated protein kinase kinase kinase kinase 3 (Homo sapiens) (UniProt Q8IVH8); details: Compound concentration 1000.0 nM
T3 sequence (whole entry): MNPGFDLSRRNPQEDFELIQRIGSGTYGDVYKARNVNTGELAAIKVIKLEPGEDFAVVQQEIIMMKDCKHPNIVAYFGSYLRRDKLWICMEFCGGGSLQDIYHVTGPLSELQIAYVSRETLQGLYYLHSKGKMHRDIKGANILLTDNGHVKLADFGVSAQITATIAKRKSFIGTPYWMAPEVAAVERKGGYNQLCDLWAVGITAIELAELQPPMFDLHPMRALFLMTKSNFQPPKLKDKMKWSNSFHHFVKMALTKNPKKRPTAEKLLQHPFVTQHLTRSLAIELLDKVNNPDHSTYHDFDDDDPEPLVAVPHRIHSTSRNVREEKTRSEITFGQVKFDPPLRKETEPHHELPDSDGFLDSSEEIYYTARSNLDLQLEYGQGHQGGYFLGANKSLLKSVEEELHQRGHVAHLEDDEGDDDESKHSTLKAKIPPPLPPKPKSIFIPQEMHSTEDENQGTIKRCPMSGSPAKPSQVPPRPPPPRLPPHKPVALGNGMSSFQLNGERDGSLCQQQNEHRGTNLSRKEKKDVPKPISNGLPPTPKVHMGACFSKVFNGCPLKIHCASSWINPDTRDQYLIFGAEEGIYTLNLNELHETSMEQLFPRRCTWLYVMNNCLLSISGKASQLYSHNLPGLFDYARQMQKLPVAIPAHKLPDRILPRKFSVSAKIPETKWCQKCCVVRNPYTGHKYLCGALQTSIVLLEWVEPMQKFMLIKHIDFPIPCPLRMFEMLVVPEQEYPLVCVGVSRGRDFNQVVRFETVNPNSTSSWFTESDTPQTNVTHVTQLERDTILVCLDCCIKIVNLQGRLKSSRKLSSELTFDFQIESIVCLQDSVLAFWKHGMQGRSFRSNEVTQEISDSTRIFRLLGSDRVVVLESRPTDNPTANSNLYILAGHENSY

[10] = system: Tyrosine-protein kinase ABL1 (Homo sapiens), P00519 [E255K]; details: Compound concentration 1000.0 nM
[11] = biological target: Dual specificity tyrosine-phosphorylation-regulated kinase 1A (Homo sapiens) (UniProt Q13627); details: Compound concentration 1000.0 nM
[12] = biological target: Muscarinic acetylcholine receptor M5 (Homo sapiens) (UniProt P08912); details: Compound concentration 10.0 uM
[13] = biological target: Receptor-interacting serine/threonine-protein kinase 2 (Homo sapiens) (UniProt O43353); details: Compound concentration 1000.0 nM
[14] = system: Tyrosine-protein kinase ABL1 (Homo sapiens), P00519 [Y253F]; details: Compound concentration 1000.0 nM
[15] = system: Hepatocyte growth factor receptor (Homo sapiens), P08581 [M1250T]; details: Compound concentration 1000.0 nM
[16] = biological target: T4, Aurora kinase C (Homo sapiens) (UniProt Q9UQB9); details: Compound concentration 1000.0 nM
T4 sequence (whole entry): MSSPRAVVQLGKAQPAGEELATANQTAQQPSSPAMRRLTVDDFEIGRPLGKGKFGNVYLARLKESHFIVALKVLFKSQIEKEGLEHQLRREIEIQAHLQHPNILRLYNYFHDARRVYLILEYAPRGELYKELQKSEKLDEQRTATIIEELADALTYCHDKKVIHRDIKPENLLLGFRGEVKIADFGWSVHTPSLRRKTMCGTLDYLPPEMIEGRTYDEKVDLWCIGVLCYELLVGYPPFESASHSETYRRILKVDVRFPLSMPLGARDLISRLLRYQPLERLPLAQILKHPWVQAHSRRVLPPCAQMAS

[17] = system: Epidermal growth factor receptor (Homo sapiens), P00533 [L858R]; details: Compound concentration 1000.0 nM
[18] = biological target: Protein-tyrosine kinase 2-beta (Homo sapiens) (UniProt Q14289); details: Compound concentration 1000.0 nM
Protein-tyrosine kinase 2-beta (Homo sapiens), sequence (Q14289 whole entry, looked up): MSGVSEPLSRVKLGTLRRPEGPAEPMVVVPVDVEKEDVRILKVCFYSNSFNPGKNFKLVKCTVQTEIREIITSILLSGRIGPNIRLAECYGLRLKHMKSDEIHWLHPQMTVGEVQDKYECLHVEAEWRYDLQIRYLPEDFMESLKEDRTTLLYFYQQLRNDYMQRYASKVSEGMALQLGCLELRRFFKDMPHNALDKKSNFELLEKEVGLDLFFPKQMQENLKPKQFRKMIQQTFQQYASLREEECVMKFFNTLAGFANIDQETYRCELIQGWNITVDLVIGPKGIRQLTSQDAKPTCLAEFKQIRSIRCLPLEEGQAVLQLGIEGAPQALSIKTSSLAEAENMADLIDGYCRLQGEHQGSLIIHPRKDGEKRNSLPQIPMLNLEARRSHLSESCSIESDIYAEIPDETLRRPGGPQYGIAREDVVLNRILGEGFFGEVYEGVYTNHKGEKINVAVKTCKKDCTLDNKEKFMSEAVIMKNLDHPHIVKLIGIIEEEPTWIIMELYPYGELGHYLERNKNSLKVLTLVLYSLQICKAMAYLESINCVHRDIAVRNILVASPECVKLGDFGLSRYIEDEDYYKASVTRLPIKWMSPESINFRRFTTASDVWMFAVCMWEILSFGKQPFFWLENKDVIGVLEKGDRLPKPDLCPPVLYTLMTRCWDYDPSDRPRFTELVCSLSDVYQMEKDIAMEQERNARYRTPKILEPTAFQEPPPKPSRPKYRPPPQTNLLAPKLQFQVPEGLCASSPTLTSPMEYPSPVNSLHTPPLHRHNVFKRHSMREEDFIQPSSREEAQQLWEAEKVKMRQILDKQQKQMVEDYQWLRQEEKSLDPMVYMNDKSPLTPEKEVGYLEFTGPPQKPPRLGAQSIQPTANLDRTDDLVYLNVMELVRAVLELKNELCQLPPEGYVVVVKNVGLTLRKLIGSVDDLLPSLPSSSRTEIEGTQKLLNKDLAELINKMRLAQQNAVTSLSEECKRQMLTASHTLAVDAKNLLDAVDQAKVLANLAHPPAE

Mitogen-activated protein kinase kinase kinase 6 (Homo sapiens), sequence (O95382 whole entry): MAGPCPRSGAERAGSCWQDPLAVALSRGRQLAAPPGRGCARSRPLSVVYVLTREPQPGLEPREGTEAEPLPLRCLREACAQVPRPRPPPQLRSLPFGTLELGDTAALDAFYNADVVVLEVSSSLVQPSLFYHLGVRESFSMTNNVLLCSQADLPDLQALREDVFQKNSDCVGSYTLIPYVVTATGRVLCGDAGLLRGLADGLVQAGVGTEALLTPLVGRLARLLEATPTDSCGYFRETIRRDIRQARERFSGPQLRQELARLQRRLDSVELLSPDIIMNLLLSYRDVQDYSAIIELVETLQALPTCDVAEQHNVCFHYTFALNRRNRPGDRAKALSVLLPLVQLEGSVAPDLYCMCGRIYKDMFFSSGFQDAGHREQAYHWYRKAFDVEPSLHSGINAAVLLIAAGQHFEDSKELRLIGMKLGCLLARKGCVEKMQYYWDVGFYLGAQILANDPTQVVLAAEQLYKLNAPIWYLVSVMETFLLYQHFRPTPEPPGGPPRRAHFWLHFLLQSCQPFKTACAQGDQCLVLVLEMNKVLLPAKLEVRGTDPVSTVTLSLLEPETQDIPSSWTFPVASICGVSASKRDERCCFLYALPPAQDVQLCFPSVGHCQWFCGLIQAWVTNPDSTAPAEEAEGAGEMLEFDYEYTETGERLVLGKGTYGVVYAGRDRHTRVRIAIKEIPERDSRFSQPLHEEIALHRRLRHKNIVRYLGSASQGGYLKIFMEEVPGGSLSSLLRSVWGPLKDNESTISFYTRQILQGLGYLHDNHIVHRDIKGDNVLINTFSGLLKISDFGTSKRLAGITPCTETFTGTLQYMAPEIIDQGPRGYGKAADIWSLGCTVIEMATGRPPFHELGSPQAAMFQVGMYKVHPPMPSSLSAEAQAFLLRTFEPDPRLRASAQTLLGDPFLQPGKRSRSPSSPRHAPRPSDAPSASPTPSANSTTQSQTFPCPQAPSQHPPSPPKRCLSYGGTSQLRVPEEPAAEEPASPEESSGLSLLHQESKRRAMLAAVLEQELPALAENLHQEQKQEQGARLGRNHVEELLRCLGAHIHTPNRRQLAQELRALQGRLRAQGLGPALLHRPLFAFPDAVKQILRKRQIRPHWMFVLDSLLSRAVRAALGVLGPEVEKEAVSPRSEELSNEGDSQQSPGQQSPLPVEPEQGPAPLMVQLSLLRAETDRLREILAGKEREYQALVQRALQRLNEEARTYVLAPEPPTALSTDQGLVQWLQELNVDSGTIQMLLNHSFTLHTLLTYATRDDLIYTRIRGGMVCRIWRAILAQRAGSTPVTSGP
D(1B) dopamine receptor (Homo sapiens), sequence (P21918 whole entry): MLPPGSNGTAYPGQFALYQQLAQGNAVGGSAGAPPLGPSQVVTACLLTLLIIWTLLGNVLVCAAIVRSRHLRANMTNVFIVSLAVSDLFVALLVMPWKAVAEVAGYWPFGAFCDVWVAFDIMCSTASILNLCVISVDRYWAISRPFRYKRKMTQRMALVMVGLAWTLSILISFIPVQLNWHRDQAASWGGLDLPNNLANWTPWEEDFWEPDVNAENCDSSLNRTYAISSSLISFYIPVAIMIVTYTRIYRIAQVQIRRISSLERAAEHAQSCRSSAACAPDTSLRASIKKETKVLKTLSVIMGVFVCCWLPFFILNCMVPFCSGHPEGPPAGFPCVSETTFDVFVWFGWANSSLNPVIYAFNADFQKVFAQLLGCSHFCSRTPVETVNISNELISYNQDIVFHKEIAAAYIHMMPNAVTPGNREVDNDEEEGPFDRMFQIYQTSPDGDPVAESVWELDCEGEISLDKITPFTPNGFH
Muscarinic acetylcholine receptor M5 (Homo sapiens), sequence (P08912 whole entry): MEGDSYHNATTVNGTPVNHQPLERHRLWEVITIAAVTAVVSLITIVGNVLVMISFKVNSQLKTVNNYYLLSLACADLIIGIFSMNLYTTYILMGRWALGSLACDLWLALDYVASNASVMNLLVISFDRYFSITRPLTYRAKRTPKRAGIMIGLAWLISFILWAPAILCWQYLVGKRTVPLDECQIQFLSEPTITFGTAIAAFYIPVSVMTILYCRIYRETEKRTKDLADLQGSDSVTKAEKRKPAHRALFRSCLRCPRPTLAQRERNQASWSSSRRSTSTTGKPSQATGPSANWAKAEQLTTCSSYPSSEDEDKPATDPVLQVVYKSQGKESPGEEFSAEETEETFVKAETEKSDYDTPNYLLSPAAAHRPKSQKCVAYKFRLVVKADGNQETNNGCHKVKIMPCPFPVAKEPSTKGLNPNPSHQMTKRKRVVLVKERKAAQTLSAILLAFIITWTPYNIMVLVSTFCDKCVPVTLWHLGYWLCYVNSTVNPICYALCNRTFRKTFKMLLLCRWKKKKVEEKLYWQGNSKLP
Receptor-interacting serine/threonine-protein kinase 2 (Homo sapiens), sequence (O43353 whole entry): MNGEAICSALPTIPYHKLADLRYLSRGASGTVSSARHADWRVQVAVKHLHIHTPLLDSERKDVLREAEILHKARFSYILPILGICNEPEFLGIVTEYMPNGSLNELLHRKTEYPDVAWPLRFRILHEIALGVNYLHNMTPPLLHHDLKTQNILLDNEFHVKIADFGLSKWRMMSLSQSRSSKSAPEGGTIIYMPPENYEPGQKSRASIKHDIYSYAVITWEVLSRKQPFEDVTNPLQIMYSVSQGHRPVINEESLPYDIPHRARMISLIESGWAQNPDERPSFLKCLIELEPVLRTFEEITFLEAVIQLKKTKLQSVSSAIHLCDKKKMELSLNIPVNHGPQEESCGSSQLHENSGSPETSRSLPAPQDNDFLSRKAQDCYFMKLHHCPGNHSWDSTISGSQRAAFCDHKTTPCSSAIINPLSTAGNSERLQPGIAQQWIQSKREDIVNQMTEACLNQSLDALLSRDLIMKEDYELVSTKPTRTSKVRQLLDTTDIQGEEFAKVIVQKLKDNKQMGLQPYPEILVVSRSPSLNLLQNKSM
Calcium-dependent protein kinase 1 (Plasmodium falciparum), sequence (P62344 2-524 limits assumed): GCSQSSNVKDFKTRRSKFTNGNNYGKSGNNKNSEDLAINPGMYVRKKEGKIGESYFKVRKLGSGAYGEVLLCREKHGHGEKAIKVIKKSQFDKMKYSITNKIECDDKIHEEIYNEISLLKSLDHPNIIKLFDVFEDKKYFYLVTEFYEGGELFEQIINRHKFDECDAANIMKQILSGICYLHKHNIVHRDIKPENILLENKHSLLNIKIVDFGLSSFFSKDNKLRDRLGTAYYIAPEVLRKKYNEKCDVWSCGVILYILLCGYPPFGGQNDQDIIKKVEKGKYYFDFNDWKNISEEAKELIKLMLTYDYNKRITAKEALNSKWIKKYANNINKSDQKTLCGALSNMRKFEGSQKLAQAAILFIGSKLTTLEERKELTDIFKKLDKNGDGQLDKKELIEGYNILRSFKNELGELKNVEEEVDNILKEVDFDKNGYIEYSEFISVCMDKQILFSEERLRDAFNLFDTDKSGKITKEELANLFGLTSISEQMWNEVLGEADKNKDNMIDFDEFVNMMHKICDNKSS

Cc1nc(C2CCN(C(=O)c3ccc(OC(F)(F)F)cc3N)CC2)c2ncc(N3CCN(C)CC3)cc2n1 [BAY-693]
inactive: residual activity [1] 100% | residual activity [2] 99% | residual activity [3] 100% | inhibition [4] 12.4% | residual activity [5] 100% | residual activity [6] 100% | residual activity [7] 76% | residual activity [8] 100% | residual activity [9] 100% | residual activity [10] 100% | residual activity [11] 100% | inhibition [12] -3.81% | residual activity [13] 94% | residual activity [14] 98% | residual activity [15] 97% | residual activity [16] 100% | residual activity [17] 89% | residual activity [18] 100%

CN1CCN(c2cnc3c(C4CCN(C(=O)c5ccc(OC(F)(F)F)cc5N)CC4)ncnc3c2)CC1 [BAY-885]
inactive: residual activity [1] 100% | residual activity [2] 86% | residual activity [3] 100% | inhibition [4] 4.63% | residual activity [5] 100% | residual activity [6] 100% | residual activity [7] 99% | residual activity [8] 100% | residual activity [9] 100% | residual activity [10] 98% | residual activity [11] 100% | inhibition [12] 2.02% | residual activity [13] 100% | residual activity [14] 100% | residual activity [15] 100% | residual activity [16] 67% | residual activity [17] 100% | residual activity [18] 100%

Source: ChEMBL document CHEMBL4507268 (2021)
